From patent publication US8119674B2, “4-phenylimidazole-2-thione tyrosinase inhibitors and pharmaceutical/cosmetic applications thereof” (Galderma Research & Development, priority 2007, dated 2012)

Molecular target: T1, tyrosinase (Mus musculus, UniProt P11344)
T1 construct: the supernatant obtained constitutes the cell lysate used as tyrosinase source in the enzymatic assay; endogenous in cells; host or cells: B16F1 murine melanoma cells, cultured with alpha-MSH; detergent/ultrasound lysate supernatant
T1 sequence (P11344 19-533): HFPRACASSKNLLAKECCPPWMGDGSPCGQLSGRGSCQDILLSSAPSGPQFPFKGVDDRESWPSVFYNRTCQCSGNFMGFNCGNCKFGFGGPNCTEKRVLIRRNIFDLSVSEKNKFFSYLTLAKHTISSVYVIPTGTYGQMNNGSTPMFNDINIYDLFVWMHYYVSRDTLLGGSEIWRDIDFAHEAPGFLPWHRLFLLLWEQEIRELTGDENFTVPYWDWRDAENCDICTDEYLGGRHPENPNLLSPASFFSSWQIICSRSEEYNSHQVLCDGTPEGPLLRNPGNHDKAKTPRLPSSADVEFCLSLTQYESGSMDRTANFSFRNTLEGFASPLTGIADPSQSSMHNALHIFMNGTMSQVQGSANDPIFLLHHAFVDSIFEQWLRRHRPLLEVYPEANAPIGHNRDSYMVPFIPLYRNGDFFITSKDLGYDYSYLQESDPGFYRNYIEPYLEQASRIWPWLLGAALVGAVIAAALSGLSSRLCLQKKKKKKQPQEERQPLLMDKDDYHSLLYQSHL
Assay: Tyrosinase activity inhibition assay (B16F1 cell lysate, L-tyrosine substrate, MBTH, absorbance at 520 nm)
Format: biochemical
Settings: lysate of B16F1 cells (murine melanoma line) as tyrosinase source; 37° C., reading at 520 nm after 6 hours; read-out: Tyrosine hydroxylase/Dopa oxidase IC50
Description: The activity of the inhibitors is measured starting from a lysate of B16F1 cells (murine melanoma line). In the presence of the L-tyrosine substrate, the tyrosinase present in these cells catalyses the hydroxylation of L-tyrosine to give L-DOPA and then the oxidation of the L-DOPA to give dopaquinone. In the presence of MBTH (3-methyl-2-benzothiazolinone hydrazone), the dopaquinone is trapped so as to form a pink complex which absorbs at 520 nm.
The B16F1 cells are cultured in DMEM medium+10% foetal calf serum+10^−9 M α-MSH for 4 days at 37° C. under 7% CO2. They are treated with trypsin, washed with PBS, counted and pelleted. The pellet is taken up at 10^7 cells/ml in lysis buffer (10 mM sodium phosphate, pH 6.8-1% Igepal) and the suspension is treated with ultrasound for 10 seconds. After centrifugation for 30 minutes at 4000 rpm, the supernatant obtained constitutes the cell lysate used as tyrosinase source in the enzymatic assay.
The assays are carried out in duplicate in 384-well plates in a total volume of 50 μl. Each well contains:
40 μl of solution containing 1.25 mM L-tyrosine, 6.25 μM L-DOPA (cofactor) and 3.75 mM MBTH in buffer B (62.25 mM sodium phosphate, pH 6.8-2.5% dimethylformamide),
5 μl of inhibitor diluted in DMSO,
5 μl of cell lysate diluted to ½ in 50 mM Tris HCl buffer, pH 7.5.
The plate is incubated at 37° C. and a spectrophotometric reading is carried out at 520 nm after incubating for 6 hours. To avoid any possible absorption of the products, the system uses corrected absorbance (absorbance at time 6 h−absorbance at time zero).
The inhibitors are assayed in terms of dose-response so as to calculate an IC50 (dose which inhibits 50% of the enzymatic activity).
Several internal controls are added to each experiment:
control for 100% activity: the 5 μl of inhibitor are replaced with 5 μl of DMSO,
control for 50% activity: the 5 μl of inhibitor are replaced with 5 μl of phenylthiourea at 300 μM in DMSO,
control for 0% activity: the L-tyrosine substrate is replaced with buffer B.

Row | SMILES | IC50 [nM]
1 | O=C(O)c1ccc(-c2c[nH]c(=S)[nH]2)cc1 [Compound 3, 4-(4-Carboxyphenyl)-1,3-dihydroimidazole-2-thione] | 200
2 | OCc1ccc(-c2c[nH]c(=S)[nH]2)cc1 [Compound 7, 4-(4-(Hydroxymethyl)phenyl)-1,3-dihydroimidazole-2-thione] | 300
3 | FC(F)Oc1ccc(-c2c[nH]c(=S)[nH]2)cc1 [Compound 9, 4-(4-(Difluoromethoxy)phenyl)-1,3-dihydroimidazole-2-thione] | 400
4 | COc1cccc(-c2c[nH]c(=S)[nH]2)c1 [Compound 11, 4-(3-Methoxyphenyl)-1,3-dihydroimidazole-2-thione] | 1400
